Data: article PMC7993375, “Discovery of novel quinoline-based analogues of combretastatin A-4 as tubulin polymerisation inhibitors with apoptosis inducing activity and potent anticancer effect” (Journal of Enzyme Inhibition and Medicinal Chemistry, 2021)

Tested on: MCF-7 cells
Assay: Colony formation assay
Format: cell-based, human
Details: 50 and 250 nM
Experimental: MCF-7 cells (600 cells per well) were seeded in 6-well plates and incubated for 24 h before being then treated with different doses of the compound 12c (50 and 250 nM) for 14 days. Following, the cells were washed with PBS twice and subsequently fixed with 4% paraformaldehyde and stained with 0.05% crystal violet for 30 min. Finally, cells were visualised using an inverted microscope.

SMILES: COc1cc(C2=NC(=Cc3cc4ccc(C)cc4nc3OC)C(=O)O2)cc(OC)c1OC [Compound 12c, 4-[(2-Methoxy-7-methylquinolin-3-yl)methylene]-2–(3,4,5-trimethoxyphenyl) oxazol-5(4H)-one]
- clonogenic formation potential of MCF-7 cells: suppressed the clonogenic formation potential of MCF-7 cells in a dose dependent manner
